Patent US10765114B2, “4-amino-6-(pyridyl and 2-substitutedphenyl)-picolinates and 6-amino-2-(pyridyl and 2-substitutedphenyl)-pyrimidine-4-carboxylates and their use as herbicides” (Dow AgroSciences LLC, priority 2013, dated 2020)
Read-outs that look alike come from different tables or passages of the source.

What was measured:
[1] = tested on: Key Broadleaf Weed and Crop Species; experiment: Post-Emergent Test II (Table 5); assay type: in vivo; settings: post-emergence, 336 h; for pest or weed control at 70 g/ha: application rate 70 (kg ai/ha; footnote: g ai/ha); for pest or weed control at 140 g/ha: application rate 140 (kg ai/ha; footnote: g ai/ha)
Procedure, shortened: (§1)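 Post-emergence greenhouse spray, 1st-2nd true leaf stage; track sprayer, 187 L/ha; acetone/DMSO stock diluted in aqueous acetone/IPA/DMSO with Atplus 411F and Triton X-155; rates 1× to 1/16×; subirrigated; visual injury 0 (none) to 100% (complete kill) at 14 days.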

[2] = tested on: Key Grass and Sedge Weeds as well as Grass Crops; experiment: Post-Emergent Test II (Table 6); assay type: in vivo; settings: post-emergence, 336 h, 14 days after application; for pest or weed control at 70 g/ha: 70 g ai/ha; for pest or weed control at 140 g/ha: 140 g ai/ha
Procedure, shortened: as §1

[3] = Abutilon theophrasti, ABUTH: velvetleaf (Abutilon theophrasti), read-out: Visual Growth Reduction (%) 14 Days After Application ABUTH
[4] = Amaranthus retroflexus, AMARE: redroot pigweed (Amaranthus retroflexus), read-out: Visual Growth Reduction (%) 14 Days After Application AMARE
[5] = Brassica napus, BRSSS: oilseed rape, canola (Brassica napus), read-out: Visual Growth Reduction (%) 14 Days After Application BRSSS
[6] = Chenopodium album, CHEAL: lambsquarters (Chenopodium album), read-out: Visual Growth Reduction (%) 14 Days After Application CHEAL
[7] = Euphorbia heterophylla, EPHHL: wild poinsettia (Euphorbia heterophylla), read-out: Visual Growth Reduction (%) 14 Days After Application EPHHL
[8] = Helianthus annuus, HELAN: sunflower (Helianthus annuus), read-out: Visual Growth Reduction (%) 14 Days After Application HELAN
[9] = Viola tricolor, VIOTR: wild pansy (Viola tricolor), read-out: Visual Growth Reduction (%) 14 Days After Application VIOTR
[10] = CYPSS, read-out: Visual Growth Reduction (%) 14 Days After Application CYPSS
[11] = DIGSA: crabgrass (Digitaria sanguinalis), read-out: Visual Growth Reduction (%) 14 Days After Application DIGSA
[12] = ORYSS (crop), read-out: Visual Growth Reduction (%) 14 Days After Application ORYSS
[13] = SETFA: giant foxtail (Setaria faberi), read-out: Visual Growth Reduction (%) 14 Days After Application SETFA
[14] = SORVU: grain sorghum (Sorghum vulgare), read-out: Visual Growth Reduction (%) 14 Days After Application SORVU
[15] = TRZSS (crop), read-out: Visual Growth Reduction (%) 14 Days After Application TRZSS
[16] = ZEAMX: maize, corn (Zea mays), read-out: Visual Growth Reduction (%) 14 Days After Application ZEAMX
[17] = ECHSS, read-out: Visual Growth Reduction (%) 14 Days After Application ECHSS

Row | Compound | pest or weed control at 70 g/ha [1, 3] [%] | pest or weed control at 140 g/ha [1, 3] [%] | pest or weed control at 70 g/ha [1, 4] [%] | pest or weed control at 140 g/ha [1, 4] [%] | pest or weed control at 70 g/ha [1, 5] [%] | pest or weed control at 140 g/ha [1, 5] [%] | pest or weed control at 70 g/ha [1, 6] [%] | pest or weed control at 140 g/ha [1, 6] [%] | pest or weed control at 70 g/ha [1, 7] [%] | pest or weed control at 140 g/ha [1, 7] [%] | pest or weed control at 70 g/ha [1, 8] [%] | pest or weed control at 140 g/ha [1, 8] [%] | pest or weed control at 70 g/ha [1, 9] [%] | pest or weed control at 140 g/ha [1, 9] [%] | pest or weed control at 70 g/ha [2, 11] [%] | pest or weed control at 140 g/ha [2, 11] [%] | pest or weed control at 70 g/ha [2, 12] [%] | pest or weed control at 140 g/ha [2, 12] [%] | pest or weed control at 70 g/ha [2, 13] [%] | pest or weed control at 140 g/ha [2, 13] [%] | further results
1 | COC(=O)c1nc(-c2ccc(C(F)(F)F)nc2OC)cc(N)c1Cl [Compound 37] | 75 to 84 | 75 to 84 | 60 to 74 | 75 to 84 | 0 to 29 | 30 to 44 | 85 to 94 | 85 to 94 | 0 to 29 | 0 to 29 | 0 to 29 | 60 to 74 | 0 to 29 | 0 to 29 | 0 to 29 | 0 to 29 | 0 to 29 | 0 to 29 | 0 to 29 | 0 to 29 | pest or weed control at 70 g/ha [2, 10]: 0 to 29%; pest or weed control at 140 g/ha [2, 10]: 0 to 29%; pest or weed control at 70 g/ha [2, 14]: 0 to 29%; pest or weed control at 140 g/ha [2, 14]: 0 to 29%; pest or weed control at 70 g/ha [2, 15]: 0 to 29%; pest or weed control at 140 g/ha [2, 15]: 0 to 29%; pest or weed control at 70 g/ha [2, 16]: 0 to 29%; pest or weed control at 140 g/ha [2, 16]: 0 to 29%
2 | Nc1c(F)c(-c2ccc(Br)nc2)nc(C(=O)O)c1Cl [Compound 8, 4-amino-6′-bromo-5-chloro-3-fluoro-[2,3′-bipyridine]-6-carboxylic acid] | 85 to 94 | 95 to 100 | 95 to 100 | 95 to 100 | 95 to 100 | 95 to 100 | 95 to 100 | 95 to 100 | 75 to 84 | 95 to 100 | 95 to 100 | 95 to 100 | 95 to 100 | 95 to 100 | 85 to 94 | 95 to 100 | 60 to 74 | 75 to 84 | 85 to 94 | 85 to 94 | pest or weed control at 70 g/ha [2, 10]: 95 to 100%; pest or weed control at 140 g/ha [2, 10]: 95 to 100%; pest or weed control at 70 g/ha [2, 17]: 85 to 94%; pest or weed control at 140 g/ha [2, 17]: 95 to 100%; pest or weed control at 70 g/ha [2, 14]: 85 to 94%; pest or weed control at 140 g/ha [2, 14]: 95 to 100%; pest or weed control at 70 g/ha [2, 15]: 85 to 94%; pest or weed control at 140 g/ha [2, 15]: 95 to 100%; pest or weed control at 70 g/ha [2, 16]: 85 to 94%; pest or weed control at 140 g/ha [2, 16]: 95 to 100%
3 | COC(=O)c1nc(-c2ccc(Cl)c(F)c2SC)cc(N)c1Cl [Compound 58] | 85 to 94 | 85 to 94 | 85 to 94 | 95 to 100 | 30 to 44 | 60 to 74 | 95 to 100 | 95 to 100 | 0 to 29 | 0 to 29 | 0 to 29 | 75 to 84 | 0 to 29 | 0 to 29 | 0 to 29 | 0 to 29 | 0 to 29 | 0 to 29 | 0 to 29 | 0 to 29 | pest or weed control at 70 g/ha [2, 17]: 0 to 29%; pest or weed control at 140 g/ha [2, 17]: 0 to 29%; pest or weed control at 70 g/ha [2, 14]: 0 to 29%; pest or weed control at 140 g/ha [2, 14]: 0 to 29%; pest or weed control at 70 g/ha [2, 15]: 0 to 29%; pest or weed control at 140 g/ha [2, 15]: 0 to 29%; pest or weed control at 70 g/ha [2, 16]: 0 to 29%; pest or weed control at 140 g/ha [2, 16]: 0 to 29%
